Assay results: patent publication US8017629B2, “Compounds and uses thereof in modulating amyloid β” (Neurogenetic Pharmaceuticals, Inc., priority 2003, dated 2011)

target: BACE Enzyme (Homo sapiens, UniProt P56817); assay: BACE Enzyme Potency (Table 12); type: biochemical; conditions: not given
Sequence (P56817 46-501, species assumed): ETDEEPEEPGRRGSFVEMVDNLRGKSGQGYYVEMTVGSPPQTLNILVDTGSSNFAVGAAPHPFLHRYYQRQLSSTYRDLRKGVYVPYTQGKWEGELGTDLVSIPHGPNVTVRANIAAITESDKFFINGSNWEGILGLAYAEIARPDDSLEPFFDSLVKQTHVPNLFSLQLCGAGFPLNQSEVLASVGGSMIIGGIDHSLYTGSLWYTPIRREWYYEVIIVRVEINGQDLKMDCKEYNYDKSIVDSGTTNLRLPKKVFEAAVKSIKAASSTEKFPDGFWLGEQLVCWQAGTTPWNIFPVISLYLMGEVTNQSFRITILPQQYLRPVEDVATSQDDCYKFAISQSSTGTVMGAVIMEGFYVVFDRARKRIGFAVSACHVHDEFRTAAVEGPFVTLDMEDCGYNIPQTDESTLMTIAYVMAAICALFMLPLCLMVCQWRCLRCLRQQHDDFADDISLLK

SMILES | IC50 [µM]
COc1ccc(-c2csc(Nc3ccc(N(C)C)cc3)n2)c(OC)c1 [Compound 355] | 1.1 to 5

same assay, conditions: Table 12; class symbols; read-out: BACE Enzyme Potency

SMILES | IC50 [µM]
COc1cccc(CNc2nc(-c3ccc(N4CCN(C)CC4)cc3)cs2)c1 [Compound 365] | 5.1 to 10
CCN(CC)c1ccc(Nc2nc(-c3ccc(-n4cnc(C)c4)cc3)cs2)c(C)c1 [Compound 380] | 1.1 to 5
CN1CCN(c2ccc(-c3csc(Nc4ccc5c(cnn5C)c4)n3)cc2)CC1 [Compound 367] | 1.1 to 5
CCN1CCN(c2ccc(-c3csc(Nc4ccc5c(c4)OCO5)n3)cc2)CC1 [Compound 375] | 1.1 to 5
CCN(c1ccc(N2CCOCC2)cc1)c1nc(-c2ccc(-n3ccnc3)cc2)cs1 [Compound 381] | 5.1 to 10
Brc1ccc(Nc2nc(-c3ccc(N4CCCC4)cc3)cs2)cc1 [Compound 361] | 0.2 to 1
CN1CCN(c2ccc(-c3csc(Nc4ccc5[nH]ncc5c4)n3)cc2)CC1 [Compound 368] | 1.1 to 5
CN1CCN(c2ccc(-c3csc(Nc4ccc(Cl)cc4)n3)cc2)CC1 [Compound 378] | 0.2 to 1

Next, values leading:

IC50 [µM] | SMILES
0.2 to 1 | CSc1cccc(Nc2nc(-c3ccc(N4CCN(C)CC4)cc3)cs2)c1 [Compound 372]
0.2 to 1 | c1cc(Nc2nc(-c3ccc4c(c3)OCO4)cs2)c2cn[nH]c2c1 [Compound 377]
0.2 to 1 | CN1CCN(c2ccc(-c3csc(Nc4ccc5c(c4)OCO5)n3)cc2)CC1 [Compound 357]
0.2 to 1 | CSc1cccc(Nc2nc(-c3ccc(-n4ccnc4)cc3)cs2)c1 [Compound 371]
< 0.2 | CN1CCN(c2ccc(-c3csc(Nc4ccc(Oc5ccccc5)cc4)n3)cc2)CC1 [Compound 369]
0.2 to 1 | COc1cc(Nc2nc(-c3ccc(F)cc3)cs2)cc(OC)c1OC [Compound 354]
0.2 to 1 | COc1ccc(-c2csc(Nc3ccc(Br)cc3)n2)c(OC)c1 [Compound 362]
0.2 to 1 | CC(C)N(c1ccccc1)c1ccc(Nc2nc(-c3ccc(-n4ccnc4)cc3)cs2)cc1 [Compound 373]
0.2 to 1 | CN1CCN(c2ccc(-c3csc(Nc4cccc(Cl)c4)n3)cc2)CC1 [Compound 376]
0.2 to 1 | COc1cc(Nc2nc(-c3ccc(N4CCN(C)CC4)cc3)cs2)cc(OC)c1OC [Compound 356]
0.2 to 1 | CN1CCN(c2ccc(-c3csc(Nc4ccc5ccccc5c4)n3)cc2)CC1 [Compound 359]
0.2 to 1 | COc1ccc(-c2csc(Nc3ccc(OC)c(OC)c3)n2)c(OC)c1 [Compound 353]
< 0.2 | CN1CCN(c2ccc(-c3csc(Nc4ccc5c(c4)OCCO5)n3)cc2)CC1 [Compound 364]
0.2 to 1 | CSc1cccc(Nc2nc(-c3ccc(N4CCCC4)cc3)cs2)c1 [Compound 379]
0.2 to 1 | c1cn(-c2ccc(-c3csc(Nc4ccc5[nH]ccc5c4)n3)cc2)cn1 [Compound 370]
< 0.2 | CN1CCN(c2ccc(-c3csc(Nc4cccc5cccnc45)n3)cc2)CC1 [Compound 360]
0.2 to 1 | CCOC(=O)c1ccc(Nc2nc(-c3ccc(N4CCN(C)CC4)cc3)cs2)cc1 [Compound 382]
0.2 to 1 | CN1CCN(c2ccc(-c3csc(Nc4ccc(N(C)C)cc4)n3)cc2)CC1 [Compound 358]
0.2 to 1 | COc1ccc(-c2csc(Nc3ccc4[nH]cnc4c3)n2)c(OC)c1 [Compound 374]
< 0.2 | CN1CCN(c2ccc(-c3csc(Nc4ccc(Cl)c(Cl)c4)n3)cc2)CC1 [Compound 366]
0.2 to 1 | CCc1ccc(Nc2nc(-c3ccc(N4CCCC4)cc3)cs2)cc1 [Compound 363]

test system: Aβ42 levels in the extracellular medium; assay: FRET (HTRF) assay, Aβ42 level of the extracellular medium of SH-SY5Y-APP cells; type: cell-based; conditions: Homo sapiens, concentration at which reduction of Aβ42 level was half of the maximum reduction, read-out: Ab42 Potency

EC50 [µM] | SMILES
10.1 to 30 | COc1ccc(Nc2nc(-c3ccc4c(c3)CCC(=O)N4)cs2)c(OC)c1 [Compound 120]
0.2 to 1 | Cc1ccc(CO)cc1Nc1nc(-c2ccc(-n3cnc(Br)c3)cc2)cs1 [Compound 301]
1.1 to 5 | CSc1cccc(Nc2nc(-c3ccc(-c4ccccc4)cc3)cs2)c1 [Compound 168]
1.1 to 5 | CN1CCC(CNc2ccc(Nc3nc(-c4ccc(-n5ccnc5)cc4)cs3)cc2)CC1 [Compound 188]
0.2 to 1 | CN1CCN(c2ccc(-c3csc(Nc4cccc(Cl)c4)n3)cc2)CC1 [Compound 151]
1.1 to 5 | Brc1cccc(Nc2nc(-c3ccc(-n4ccnc4)cc3)cs2)c1 [Compound 212]
10.1 to 30 | COc1ccccc1-c1csc(Nc2ccc(Br)cc2)n1 [Compound 130]
0.2 to 1 | Cc1ccc(N2CCN(C)CC2)cc1Nc1nc(-c2ccc(-n3ccnc3)cc2)cs1 [Compound 255]
< 0.2 | CCN(CC)c1cc(Nc2nc(-c3ccc(-n4cnc(C)c4)cc3)cs2)c(C)cc1C [Compound 288]
1.1 to 5 | CCN(CC)c1ccc(C)c(Nc2nc(-c3ccc(-n4cc(C)cn4)cc3)cs2)c1 [Compound 307]
1.1 to 5 | c1cn(-c2ccc(-c3csc(Nc4ccc5[nH]ccc5c4)n3)cc2)cn1 [Compound 143]
